Test [1] relates to PAR2 stabilised receptor (StaR). The test is described as follows: Surface plasmon resonance (SPR) binding, single-cycle kinetics. On the procedure:
(§1) The SPR binding experiments were performed on a Biacore S200 optical biosensor unit (GE Healthcare) at 30 °C. Sensor chips Series S NTA (Research grade, GE Healthcare) were equilibrated at room temperature prior to use. The running buffer for protein tethering and subsequent ligand binding experiments was 50 mM HEPES, 250 mM NaCl, 0.1% (w/v) LMNG, 0.005% (w/v) CHS, 0.025% (w/v) CHAPS, pH 7.4, if not stated otherwise. The tethering of PAR2 was performed at a flow rate of 5 µl min^−1. The NTA surface was chosen to allow full control of the steric orientation of the tethered protein and was conditioned by a one-minute injection of a 350 mM EDTA solution (pH 8.3) followed by a one-minute injection of running buffer supplemented with 0.5 mM NiCl2. To allow for a covalent tethering after the initial capture step, the conditioned surface was activated for 7 min with 50 mM NHS and 200 mM EDC. This was immediately followed by an injection of PAR2 in running buffer at a concentration of 80–120 µg ml^−1 with a contact time of 5–10 min to achieve the desired densities of 8000–9000 RU. […] Reference surfaces were prepared accordingly, omitting the injection of protein over the activated reference surface. The subsequent binding experiments were all performed at a flow rate of 30 µl min^−1 and by employing the method of single-cycle kinetics. This approach involves the sequential injection of a compound concentration series without regeneration steps. A contact time of 60 s was selected, which was followed by a 30 min dissociation phase to allow for a proper estimation of the dissociation rate constant. Compounds were dissolved in DMSO to 10 mM and a digital dispenser HP D300 (Tecan) was used to set up the compound concentration series using 8 concentrations with a 2-fold dilution pattern. […] Prior to the analysis of compound binding, three running buffer blanks were injected to equilibrate the instrument. The data collection rate was set to 10 Hz and all experiments were repeated at least four times to allow for error estimations. Due to the low DMSO mismatch (maximum 0.1%) introduced by the compound addition, no solvent correction was required. To evaluate compound binding to the PAR-AZ8838 complex, the antagonist AZ8838 was supplemented into the running buffer at a concentration of 50 µM and the instrument was equilibrated for 1 h before performing the single-cycle kinetic study as described above. Similarly, binding of AZ2429 to the PAR-AZ3451 complex was investigated after addition of 1 µM AZ3451 to the running buffer followed by 1 h equilibrium period, while the addition of 10 µM AZ2429 to the running buffer was required to ensure >99% saturation for single-cycle kinetic study of AZ3451 binding to the PAR2-AZ2429 complex.
(§2) Prior to the fitting of the data, the reference-subtracted data was further analysed by subtracting a similar single-cycle kinetic experiment containing only buffer injections in order to correct for injection artefacts, systematic noise and instrument drift. This double-referenced data has been fitted using a simple 1:1 interaction model as described by Karlsson et al.[46] in order to extract kinetic and affinity data. All data were expressed as mean ± s.e.m. and further analysed using GraphPad Prism 8. Statistical differences were assessed using student’s t-tests (two-tailed) for data sets of two and one-way ANOVA for data sets of three. Significance was set at ^+p < 0.05, ^++p < 0.01, ^+++p < 0.001, ^++++p < 0.0001 compared to AZ3451, and *p < 0.05, **p < 0.01, ***p < 0.001, ****p < 0.0001 compared to AZ2429.

Test [2] has as its target T1, PAR2 stabilised receptor (StaR) (Homo sapiens, UniProt P55085).
T1 sequence (P55085 55-377): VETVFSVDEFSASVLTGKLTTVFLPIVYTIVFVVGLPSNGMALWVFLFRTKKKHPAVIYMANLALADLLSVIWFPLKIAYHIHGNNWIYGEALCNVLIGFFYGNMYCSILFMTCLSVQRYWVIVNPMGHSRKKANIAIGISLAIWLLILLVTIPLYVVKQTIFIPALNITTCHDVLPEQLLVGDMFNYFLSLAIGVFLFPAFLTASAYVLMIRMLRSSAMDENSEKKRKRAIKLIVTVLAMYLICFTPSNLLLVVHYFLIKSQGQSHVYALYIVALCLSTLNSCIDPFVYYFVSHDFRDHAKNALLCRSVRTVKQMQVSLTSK
The test is described as above. On the procedure:
as §1, §2

Consider `CNC(=O)[C@H]1CC[C@@H](NC(=O)[C@H](CC2CCCCC2)NC(=O)c2cn(Cc3ccccc3)nn2)c2ccccc21` [AZ2429], for which, in test [1] (SPR), the “association kinetics slower than AZ3451” value is “around 100 fold”, the “dissociation rate decreased relative to AZ3451” value worked out at 5 fold and the “weaker affinity than AZ3451” value is given as 10 fold. Moreover, in test [1] (apo-PAR2, 30 °C), the ka was 1.5 ± 0.1 × 10^4 (n = 4) M^−1 s^−1, the pKD is 6.89 ± 0.03 (n = 4) and the residence time was 523 ± 50 (n = 4) s.
As to `C[C@@H](C1CCCCC1)n1c(-c2cc3c(cc2Br)OCO3)nc2cc(C(=O)Nc3ccc(C#N)cc3)ccc21` [AZ3451], the “reduction in affinity in presence of saturating AZ8838” value in test [2] (SPR) was found to be 3 fold. The residence time entry in test [2] (SPR, apo-PAR2) was “about 2 min”. Further, in test [2] (apo-PAR2, 30 °C), the ka was 1.1 ± 0.6 × 10^6 (n = 4) M^−1 s^−1, the pKD was 7.96 ± 0.04 (n = 4) and the residence time is 116 ± 68 (n = 4) s.

Source of the values: publication PMC7747594, “Protease-activated receptor-2 ligands reveal orthosteric and allosteric mechanisms of receptor inhibition” (Communications Biology, 2020).
